This test addresses T1, Human transferrin (Htf) (Homo sapiens, UniProt P02787).
T1 construct: gene TF; single-chain glycoprotein of 679 amino acids (mature plasma protein)
The experiment in a line: intrinsic fluorescence quenching, modified Stern-Volmer. It is filed as binding. Particulars: 5 μM protein, sodium phosphate (PBS) buffer, excitation 280 nm, emission 300-400 nm, ligand 1-10 μM from DMSO stock; pH and temperature not given.

Molecules are shown by their SMILES.

T1 sequence (P02787 20-698): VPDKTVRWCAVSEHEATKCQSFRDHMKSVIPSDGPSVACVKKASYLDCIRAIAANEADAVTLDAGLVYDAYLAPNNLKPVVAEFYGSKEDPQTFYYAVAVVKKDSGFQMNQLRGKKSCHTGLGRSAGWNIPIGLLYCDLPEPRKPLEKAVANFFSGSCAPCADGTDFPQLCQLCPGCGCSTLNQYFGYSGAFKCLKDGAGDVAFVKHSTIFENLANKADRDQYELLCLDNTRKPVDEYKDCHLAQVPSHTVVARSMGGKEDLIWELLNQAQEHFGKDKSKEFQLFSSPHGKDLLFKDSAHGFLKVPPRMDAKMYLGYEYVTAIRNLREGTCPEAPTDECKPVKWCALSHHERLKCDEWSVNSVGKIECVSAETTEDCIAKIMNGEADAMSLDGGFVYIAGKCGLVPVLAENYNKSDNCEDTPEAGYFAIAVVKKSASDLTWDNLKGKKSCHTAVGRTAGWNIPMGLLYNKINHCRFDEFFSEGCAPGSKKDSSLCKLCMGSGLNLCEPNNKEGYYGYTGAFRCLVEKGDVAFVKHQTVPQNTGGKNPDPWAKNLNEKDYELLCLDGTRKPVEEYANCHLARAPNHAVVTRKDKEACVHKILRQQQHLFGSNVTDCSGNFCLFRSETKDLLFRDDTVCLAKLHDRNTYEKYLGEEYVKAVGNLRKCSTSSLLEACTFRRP

`NCCc1c[nH]c2ccccc12` [Tryptamine] gave a K of 480000 M⁻¹.

The values are drawn from paper PMC11962429, “Unraveling human transferrin-tryptamine interactions: a computational and biophysical approach to Alzheimer’s disease therapeutics” (Frontiers in Pharmacology, 2025).
